Assay results as given in the supplement of paper PMC10307832.

The cell lines below were run with COc1nc(N)nc2c1ncn2[C@@H]1O[C@H](CO)[C@@H](O)[C@@H]1O [Nelarabine] + CCNC(=O)c1noc(-c2cc(C(C)C)c(O)cc2O)c1-c1ccc(CN2CCOCC2)cc1 [Luminespib] (partner 0.01 µM) (assay: relative viability (nuclei count vs DMSO), 5 days (fraction); higher = more cells survive). Details: first compound 0.01 µM.
How it was run: (§1)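 Medians of duplicate plates are given as relative viability. That measure is the nuclei count in treated wells divided by the count in vehicle wells. Counts were taken on 4× images of lung cancer cell lines in 1536-well plates, 5 days after pin-tool dosing the day after seeding with one drug alone or a fixed anchor-drug dose plus five library-drug doses (not always all listed) in √10 steps.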

| Cell Line | relative viability |
| --- | --- |
| NCI-H1755 | 0.463 |
| NCI-H1792 | 0.406 |
| NCI-H1793 | 0.421 |
| NCI-H1915 | 1.31 |
| NCI-H1944 | 0.925 |
| NCI-H1975 | 0.237 |
| NCI-H1993 | 0.861 |
| NCI-H2009 | 1.16 |
| NCI-H2023 | 1.07 |
| NCI-H2085 | 0.498 |
| NCI-H2087 | 0.193 |
| NCI-H2126 | 1.04 |
| NCI-H2228 | 0.182 |
| NCI-H2347 | 0.463 |
| NCI-H2405 | 0.697 |
| NCI-H3122 | 0.0966 |
| PC-3 [JPC-3] | 0.651 |
| PC-14 | 0.145 |
| RERF-LC-KJ | 1.41 |

Same assay, conditions: first compound 0.03162 µM

| Cell Line | relative viability |
| --- | --- |
| NCI-H441 | 0.372 |
| NCI-H460 | 0.0328 |
| NCI-H520 | 0.249 |
| NCI-H596 | 0.996 |
| NCI-H647 | 0.111 |
| NCI-H650 | 0.726 |
| NCI-H661 | 1.09 |
| NCI-H727 | 0.377 |
| NCI-H838 | 0.321 |
| NCI-H1355 | 0.618 |
| NCI-H1395 | 0.691 |
| NCI-H1437 | 1.02 |
| NCI-H1651 | 0.953 |
| NCI-H1666 | 0.962 |
| NCI-H1734 | 0.161 |
| NCI-H1755 | 0.456 |
| NCI-H1792 | 0.537 |

| Cell Line | relative viability |
| --- | --- |
| NCI-H1793 | 0.156 |
| NCI-H1915 | 0.87 |
| NCI-H1944 | 0.775 |
| NCI-H1975 | 0.244 |
| NCI-H1993 | 0.721 |
| NCI-H2009 | 1.05 |
| NCI-H2023 | 0.596 |
| NCI-H2085 | 0.48 |
| NCI-H2087 | 0.125 |
| NCI-H2126 | 0.951 |
| NCI-H2228 | 0.156 |
| NCI-H2347 | 0.743 |
| NCI-H2405 | 0.844 |
| NCI-H3122 | 0.11 |
| PC-3 [JPC-3] | 0.429 |
| PC-14 | 0.177 |
| RERF-LC-KJ | 1.31 |

Same assay, conditions: first compound 0.1 µM

| Cell Line | relative viability |
| --- | --- |
| NCI-H441 | 0.286 |
| NCI-H460 | 0.0352 |
| NCI-H520 | 0.184 |
| NCI-H596 | 1.08 |
| NCI-H647 | 0.193 |
| NCI-H650 | 0.759 |
| NCI-H661 | 0.928 |
| NCI-H727 | 0.351 |
| NCI-H838 | 0.31 |
| NCI-H1355 | 0.667 |
| NCI-H1395 | 0.773 |
| NCI-H1437 | 1.13 |
| NCI-H1651 | 0.822 |
| NCI-H1666 | 0.898 |
| NCI-H1734 | 0.193 |
| NCI-H1755 | 0.755 |

| Cell Line | relative viability |
| --- | --- |
| NCI-H1792 | 0.451 |
| NCI-H1793 | 0.201 |
| NCI-H1915 | 0.912 |
| NCI-H1944 | 0.793 |
| NCI-H1975 | 0.169 |
| NCI-H1993 | 0.917 |
| NCI-H2009 | 1.02 |
| NCI-H2023 | 0.905 |
| NCI-H2085 | 0.427 |
| NCI-H2087 | 0.155 |
| NCI-H2126 | 0.822 |
| NCI-H2347 | 0.621 |
| NCI-H2405 | 0.646 |
| PC-3 [JPC-3] | 0.697 |
| PC-14 | 0.118 |
| RERF-LC-KJ | 1.34 |

Same assay, conditions: first compound 0.3162 µM

| Cell Line | relative viability |
| --- | --- |
| NCI-H441 | 0.294 |
| NCI-H460 | 0.0376 |
| NCI-H520 | 0.27 |
| NCI-H596 | 1.12 |
| NCI-H647 | 0.128 |
| NCI-H650 | 0.708 |
| NCI-H661 | 0.914 |
| NCI-H727 | 0.469 |
| NCI-H838 | 0.257 |
| NCI-H1355 | 0.629 |
| NCI-H1395 | 0.707 |
| NCI-H1437 | 1.21 |
| NCI-H1651 | 0.985 |
| NCI-H1666 | 1 |
| NCI-H1734 | 0.209 |
| NCI-H1755 | 0.539 |
| NCI-H1792 | 0.425 |

| Cell Line | relative viability |
| --- | --- |
| NCI-H1793 | 0.251 |
| NCI-H1915 | 0.841 |
| NCI-H1944 | 0.73 |
| NCI-H1975 | 0.198 |
| NCI-H1993 | 0.965 |
| NCI-H2009 | 1.07 |
| NCI-H2023 | 0.834 |
| NCI-H2085 | 0.518 |
| NCI-H2087 | 0.18 |
| NCI-H2126 | 0.892 |
| NCI-H2228 | 0.161 |
| NCI-H2347 | 0.48 |
| NCI-H2405 | 0.762 |
| NCI-H3122 | 0.12 |
| PC-3 [JPC-3] | 0.703 |
| PC-14 | 0.178 |
| RERF-LC-KJ | 1.27 |

Same assay, conditions: first compound 1 µM

| Cell Line | relative viability |
| --- | --- |
| NCI-H441 | 0.268 |
| NCI-H460 | 0.0317 |
| NCI-H520 | 0.218 |
| NCI-H596 | 0.988 |
| NCI-H647 | 0.136 |
| NCI-H650 | 0.718 |
| NCI-H661 | 0.911 |
| NCI-H727 | 0.298 |
| NCI-H838 | 0.221 |
| NCI-H1355 | 0.713 |
| NCI-H1395 | 0.987 |
| NCI-H1437 | 1.02 |
| NCI-H1651 | 0.856 |
| NCI-H1666 | 1 |
| NCI-H1734 | 0.187 |
| NCI-H1755 | 0.56 |
| NCI-H1792 | 0.55 |

| Cell Line | relative viability |
| --- | --- |
| NCI-H1793 | 0.191 |
| NCI-H1915 | 0.988 |
| NCI-H1944 | 0.745 |
| NCI-H1975 | 0.464 |
| NCI-H1993 | 0.798 |
| NCI-H2009 | 1.05 |
| NCI-H2023 | 0.7 |
| NCI-H2085 | 0.434 |
| NCI-H2087 | 0.196 |
| NCI-H2126 | 0.977 |
| NCI-H2228 | 0.151 |
| NCI-H2347 | 0.478 |
| NCI-H2405 | 0.696 |
| NCI-H3122 | 0.115 |
| PC-3 [JPC-3] | 0.601 |
| PC-14 | 0.151 |
| RERF-LC-KJ | 1.31 |

Each cell line was assayed with COc1nc(N)nc2c1ncn2[C@@H]1O[C@H](CO)[C@@H](O)[C@@H]1O [Nelarabine] + C[C@]1(O)C[C@@H](c2nc(-c3ccc4ccc(-c5ccccc5)nc4c3)c3c(N)nccn32)C1 [Linsitinib] (partner 1 µM) in the same assay as above. Details: first compound 0.01 µM.
How it was run: as §1

| Cell Line | relative viability |
| --- | --- |
| NCI-H441 | 0.679 |
| NCI-H460 | 1.09 |
| NCI-H520 | 1.19 |
| NCI-H596 | 1.15 |
| NCI-H647 | 1.7 |
| NCI-H650 | 0.927 |
| NCI-H661 | 0.719 |
